Several values for one entry are separate records, joined by “and”; a condition that tells them apart may be missing. Equal entries are not always repeated. Inconclusive results and toxic doses are left out. The calls were made as follows: active = survival T/C of 150% or more; inactive = T/C below 125% in these data.
System: BDF1 mice, B16 melanoma ip, median survival T/C
Experiment: NCI In Vivo Anticancer Drug Screen. Data for tumor model B16 Melanoma (intraperitoneal) in B6D2F1 (BDF1) mice
Settings: endpoint: median survival time, higher = longer survival
Outline: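 Antitumor activity is assessed in mice bearing a transplanted tumor, with survival or tumor size compared against vehicle-dosed controls and expressed as T/C.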

[1] = dose: 25.0 mg/kg/injection, schedule: Q01DX009 (ip), vehicle: saline with Tween-80
[2] = dose: 50.0 mg/kg/injection, schedule: Q01DX009 (ip), vehicle: saline with Tween-80
[3] = dose: 100.0 mg/kg/injection, schedule: Q01DX009 (ip), vehicle: saline with Tween-80
[4] = dose: 12.5 mg/kg/injection, schedule: Q01DX009 (ip), vehicle: saline with Tween-80
[5] = dose: 200.0 mg/kg/injection, schedule: Q01DX009 (ip), vehicle: saline with Tween-80
[6] = dose: 6.25 mg/kg/injection, schedule: Q01DX009 (ip), vehicle: saline
[7] = dose: 12.5 mg/kg/injection, schedule: Q01DX009 (ip), vehicle: saline
[8] = dose: 25.0 mg/kg/injection, schedule: Q01DX009 (ip), vehicle: saline
[9] = dose: 50.0 mg/kg/injection, schedule: Q01DX009 (ip), vehicle: Klucel (hydroxypropylcellulose) (HPC)
[10] = dose: 100.0 mg/kg/injection, schedule: Q01DX009 (ip), vehicle: Klucel (hydroxypropylcellulose) (HPC)
[11] = dose: 200.0 mg/kg/injection, schedule: Q01DX009 (ip), vehicle: Klucel (hydroxypropylcellulose) (HPC)

Measured: T/C

O=C(CC(O)(C(F)(F)Cl)C(F)(F)Cl)c1ccco1
inactive: [1] 100 % of control | [2] 100 % of control | [3] 105 % of control

CN(C)N=Nc1ccnc2c(I)cccc12
inactive: dose: 25.2 mg/kg/injection, schedule: Q01DX008 (ip), vehicle: DMSO 92 % of control | dose: 42.0 mg/kg/injection, schedule: Q01DX008 (ip), vehicle: DMSO 97 % of control | dose: 70.0 mg/kg/injection, schedule: Q01DX008 (ip), vehicle: DMSO 99 % of control | dose: 116.7 mg/kg/injection, schedule: Q01DX008 (ip), vehicle: DMSO 92 % of control

CCN1C=C/C(=C/c2cc3scc(-c4ccccc4)[n+]3c3ccccc23)c2ccccc21
inactive: dose: 0.08 mg/kg/injection, schedule: Q01DX009 (ip), vehicle: saline 94 % of control | dose: 0.15 mg/kg/injection, schedule: Q01DX009 (ip), vehicle: saline 94 % of control | dose: 0.3 mg/kg/injection, schedule: Q01DX009 (ip), vehicle: saline 90 % of control | dose: 75.0 micrograms/kg/injection, schedule: Q01DX009 (ip), vehicle: Klucel (hydroxypropylcellulose) (HPC) 103 % of control | dose: 150.0 micrograms/kg/injection, schedule: Q01DX009 (ip), vehicle: Klucel (hydroxypropylcellulose) (HPC) 107 % of control | dose: 300.0 micrograms/kg/injection, schedule: Q01DX009 (ip), vehicle: Klucel (hydroxypropylcellulose) (HPC) 98 % of control | dose: 600.0 micrograms/kg/injection, schedule: Q01DX009 (ip), vehicle: Klucel (hydroxypropylcellulose) (HPC) 95 % of control

Nc1nc(SCc2ccccc2F)c2ncn(C3OC(CO)C(O)C3O)c2n1 (stereo not given)
inactive: dose: 3.12 mg/kg/injection, schedule: Q01DX009 (ip), vehicle: saline with Tween-80 105 % of control | dose: 6.25 mg/kg/injection, schedule: Q01DX009 (ip), vehicle: saline with Tween-80 116 % of control | [4] 122 % of control | [1] 95 % of control

Cc1c(N)nc(C(CC(N)=O)NCC(N)C(N)=O)nc1C(=O)NC(C(=O)NC(C)C(O)C(C)C(=O)NC(C(=O)NCCc1nc(-c2nc(C(=O)NCCCNCCCc3ccccn3)cs2)cs1)C(C)O)C(OC1OC(CO)C(O)C(O)C1OC1OC(CO)C(O)C(OC(N)=O)C1O)c1cnc[nH]1 (stereo not given)
inactive: dose: 1.5 mg/kg/injection, schedule: Q01DX009 (ip), vehicle: water 93 % of control | dose: 3.0 mg/kg/injection, schedule: Q01DX009 (ip), vehicle: water 102 % of control | dose: 6.0 mg/kg/injection, schedule: Q01DX009 (ip), vehicle: water 102 % of control and 105 % of control | dose: 12.0 mg/kg/injection, schedule: Q01DX009 (ip), vehicle: water 105 % of control and 110 % of control | dose: 24.0 mg/kg/injection, schedule: Q01DX009 (ip), vehicle: water 100 % of control

Cc1cc([N+](=O)[O-])c(Cl)cc1NS(=O)(=O)c1ccccc1
inactive: [1] 95 % of control | [2] 93 % of control | [3] 90 % of control

O=C(Nc1ccc(Cl)cc1)Nc1ccccc1Cl
inactive: dose: 4.5 mg/kg/injection, schedule: Q01DX009 (ip), vehicle: gum acacia 102 % of control | dose: 9.0 mg/kg/injection, schedule: Q01DX009 (ip), vehicle: gum acacia 97 % of control | dose: 18.0 mg/kg/injection, schedule: Q01DX009 (ip), vehicle: gum acacia 90 % of control | dose: 100.0 mg/kg/injection, schedule: Q01DX009 (ip), vehicle: gum acacia 89 % of control

Nc1ccc(S(=O)(=O)c2ccc(N)cc2)cc1
inactive: [4] 107 % of control | [1] 97 % of control and 102 % of control | [2] 90 % of control and 94 % of control | [3] 93 % of control and 95 % of control | [5] 94 % of control

N=C(N)c1ccc(OCCCOc2ccc(C(=N)N)cc2Br)c(Br)c1
inactive: [6] 97 % of control and 114 % of control | [7] 97 % of control and 111 % of control | [8] 97 % of control and 111 % of control

COc1ccc(C=Nc2ccc(Cl)cc2)cc1
inactive: [9] 104 % of control | [10] 103 % of control | [11] 106 % of control

CC(C)(SCCc1ccc([N+](=O)[O-])cc1)C(N)C(=O)O (stereo not given)
inactive: dose: 6.25 mg/kg/injection, schedule: Q01DX009 (ip), vehicle: Klucel (hydroxypropylcellulose) (HPC) 88 % of control

CC(=O)OCC1OC(n2cnc3c(=S)nc[nH]c32)C(OC(C)=O)C1OC(C)=O (stereo not given)
inactive: dose: 50.0 mg/kg/injection, schedule: Q01DX009 (ip), vehicle: suspension in saline 114 % of control | dose: 100.0 mg/kg/injection, schedule: Q01DX009 (ip), vehicle: suspension in saline 109 % of control | dose: 100.0 mg/kg/injection, schedule: Q04DX003 (ip), vehicle: saline with Tween-80 106 % of control | dose: 200.0 mg/kg/injection, schedule: Q04DX003 (ip), vehicle: saline with Tween-80 100 % of control | dose: 400.0 mg/kg/injection, schedule: Q04DX003 (ip), vehicle: saline with Tween-80 91 % of control

CCC[CH2][Sn]1([CH2]CCC)[S]CC[N]1S(=O)(=O)c1ccc(C)cc1
inactive: dose: 6.0 mg/kg/injection, schedule: Q01DX009 (ip), vehicle: saline with Tween-80 95 % of control | [4] 108 % of control

O=[N+]([O-])c1cc(S(=O)(=O)OCC2CO2)ccc1Cl (stereo not given)
inactive: dose: 0.1 mg/kg/injection, schedule: Q01DX009 (ip), vehicle: saline with Tween-80 100 % of control | dose: 0.2 mg/kg/injection, schedule: Q01DX009 (ip), vehicle: saline with Tween-80 93 % of control | dose: 0.4 mg/kg/injection, schedule: Q01DX009 (ip), vehicle: saline with Tween-80 97 % of control | dose: 0.8 mg/kg/injection, schedule: Q01DX009 (ip), vehicle: saline with Tween-80 95 % of control

Cc1ccc(Oc2c3c(nc4ccccc24)CCCC3)cc1
inactive: [3] 110 % of control | [5] 107 % of control | dose: 400.0 mg/kg/injection, schedule: Q01DX009 (ip), vehicle: saline with Tween-80 92 % of control

CCCCCCCCCCCCCCCCCCNC(=O)CCl
inactive: [9] 93 % of control | [10] 93 % of control | [11] 86 % of control

CCCCNCC1COc2cccc(OCC)c2O1 (stereo not given)
inactive: dose: 3.12 mg/kg/injection, schedule: Q01DX009 (ip), vehicle: saline 120 % of control | [6] 95 % of control | [7] 97 % of control | [8] 105 % of control | dose: 50.0 mg/kg/injection, schedule: Q01DX009 (ip), vehicle: saline 100 % of control

Cn1c2c(sc1=O)CCC2
inactive: [9] 113 % of control | [10] 100 % of control | [11] 97 % of control

CS(=O)(=O)OCCCCCCCCCOS(C)(=O)=O
inactive: dose: 25.0 mg/kg/injection, schedule: Q01DX009 (ip), vehicle: Klucel (hydroxypropylcellulose) (HPC) 94 % of control | [9] 88 % of control | [10] 102 % of control

From PubChem BioAssay AID192 (DTP/NCI, 2004)
